Assay results as given in PubChem BioAssay AID330 (DTP/NCI, 2004).
Values joined by “and” are separate entries in the source; they are usually repeats but may differ in a detail not shown here. Equal entries are not always repeated. Toxic doses and inconclusive results are not listed. How the source made its calls: active means survival T/C of 150% or more; inactive means T/C below 125% in these data.

Test system: P388 leukemia ip, CD2F1 mice, survival T/C
Experiment: NCI In Vivo Anticancer Drug Screen. Data for tumor model P388 Leukemia (intraperitoneal) in CD2F1 (CDF1) mice
Settings: endpoint: median survival time, higher = longer survival
Outline: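 Mice carrying the transplanted tumor received test compound or vehicle. Survival was recorded in each group, and the value is the treated-group measurement divided by that of the vehicle-treated control group.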

[1] = dose: 50.0 mg/kg/injection, schedule: Q01DX009 (ip), vehicle: Klucel (hydroxypropylcellulose) (HPC)
[2] = dose: 100.0 mg/kg/injection, schedule: Q01DX009 (ip), vehicle: Klucel (hydroxypropylcellulose) (HPC)
[3] = dose: 100.0 mg/kg/injection, schedule: Q01DX001 (ip), vehicle: Klucel (hydroxypropylcellulose) (HPC)
[4] = dose: 200.0 mg/kg/injection, schedule: Q01DX001 (ip), vehicle: Klucel (hydroxypropylcellulose) (HPC)
[5] = dose: 400.0 mg/kg/injection, schedule: Q01DX001 (ip), vehicle: Klucel (hydroxypropylcellulose) (HPC)
[6] = dose: 50.0 mg/kg/injection, schedule: Q01DX005 (ip), vehicle: Klucel (hydroxypropylcellulose) (HPC)
[7] = dose: 100.0 mg/kg/injection, schedule: Q01DX005 (ip), vehicle: Klucel (hydroxypropylcellulose) (HPC)
[8] = dose: 200.0 mg/kg/injection, schedule: Q01DX005 (ip), vehicle: Klucel (hydroxypropylcellulose) (HPC)
[9] = dose: 200.0 mg/kg/injection, schedule: Q01DX009 (ip), vehicle: Klucel (hydroxypropylcellulose) (HPC)
[10] = dose: 200.0 mg/kg/injection, schedule: Q01DX005 (ip), vehicle: saline with Tween-80
[11] = dose: 60.0 mg/kg/injection, schedule: Q01DX005 (ip), vehicle: Klucel (hydroxypropylcellulose) (HPC)
[12] = dose: 120.0 mg/kg/injection, schedule: Q01DX005 (ip), vehicle: Klucel (hydroxypropylcellulose) (HPC)
[13] = dose: 240.0 mg/kg/injection, schedule: Q01DX005 (ip), vehicle: Klucel (hydroxypropylcellulose) (HPC)
[14] = dose: 50.0 mg/kg/injection, schedule: Q01DX005 (ip), vehicle: saline with Tween-80
[15] = dose: 100.0 mg/kg/injection, schedule: Q01DX005 (ip), vehicle: saline with Tween-80

Measured: T/C

C#CCN(C)/N=N/c1nc[nH]c1C(N)=O
inactive: dose: 12.5 mg/kg/injection, schedule: Q01DX009 (ip), vehicle: Klucel (hydroxypropylcellulose) (HPC) 115 % of control | dose: 25.0 mg/kg/injection, schedule: Q01DX009 (ip), vehicle: Klucel (hydroxypropylcellulose) (HPC) 122 % of control | [1] 120 % of control | [2] 112 % of control

NNC(=O)C(NC(=O)c1ccccc1)C(N)=O (centres undefined)
inactive: dose: 100.0 mg/kg/injection, schedule: Q04DX003 (ip), vehicle: saline 95 % of control | dose: 200.0 mg/kg/injection, schedule: Q04DX003 (ip), vehicle: saline 95 % of control | dose: 400.0 mg/kg/injection, schedule: Q04DX003 (ip), vehicle: saline 94 % of control

O=C1CC2(CCCC2)C(=O)N1c1cccc(Cl)c1
inactive: [3] 97 % of control | [4] 100 % of control | [5] 91 % of control

Nc1nnc(SCCCCCCCCCCSc2nnc(N)s2)s1
inactive: [6] 95 % of control | [7] 91 % of control | [8] 89 % of control

CCCCCCCCCCCCCCCCSCC(COC)COP(=O)([O-])OCC[N+](C)(C)C (centres undefined)
inactive: dose: 1.25 mg/kg/injection, schedule: Q01DX005 (oral), vehicle: saline 109 % of control | dose: 2.5 mg/kg/injection, schedule: Q01DX005 (oral), vehicle: saline 106 % of control | dose: 5.0 mg/kg/injection, schedule: Q01DX005 (oral), vehicle: saline 110 % of control | dose: 10.0 mg/kg/injection, schedule: Q01DX005 (oral), vehicle: saline 110 % of control | dose: 20.0 mg/kg/injection, schedule: Q01DX005 (oral), vehicle: saline 109 % of control | dose: 40.0 mg/kg/injection, schedule: Q01DX005 (oral), vehicle: saline 108 % of control

CCCSP(=S)(c1ccc(Cl)cc1)c1ccc(Cl)cc1
inactive: dose: 100.0 mg/kg/injection, schedule: Q04DX002 (ip), vehicle: saline 106 % of control | dose: 200.0 mg/kg/injection, schedule: Q04DX002 (ip), vehicle: saline 103 % of control | dose: 400.0 mg/kg/injection, schedule: Q04DX002 (ip), vehicle: saline 103 % of control

O=C1CC2(CCCC2)C(=O)N1c1cccc([N+](=O)[O-])c1
inactive: [1] 92 % of control | [2] 106 % of control | [9] 101 % of control

CCC1(CC)C(=O)NC(=O)[N]([Sn]([CH2]C)([CH2]C)[N]2C(=O)NC(=O)C(CC)(CC)C2=O)C1=O
inactive: dose: 1.56 mg/kg/injection, schedule: Q01DX005 (ip), vehicle: Klucel (hydroxypropylcellulose) (HPC) 90 % of control | dose: 3.12 mg/kg/injection, schedule: Q01DX005 (ip), vehicle: Klucel (hydroxypropylcellulose) (HPC) 111 % of control and 117 % of control | dose: 6.25 mg/kg/injection, schedule: Q01DX005 (ip), vehicle: Klucel (hydroxypropylcellulose) (HPC) 120 % of control | dose: 12.5 mg/kg/injection, schedule: Q01DX005 (ip), vehicle: Klucel (hydroxypropylcellulose) (HPC) 111 % of control

CCC1(CC)CCC(C(=O)OC)/C1=N\Nc1ccc([N+](=O)[O-])cc1[N+](=O)[O-] (centres undefined)
inactive: [3] 102 % of control | [4] 98 % of control | [5] 100 % of control

Cc1ccc(S(=O)(=O)SC(C)(C)C)cc1
inactive: [6] 112 % of control | [7] 112 % of control | [8] 112 % of control

CC1CN(Cc2ccccc2)CCC1N1CCCCC1 (centres undefined)
inactive: dose: 50.0 mg/kg/injection, schedule: Q01DX005 (ip), vehicle: saline 99 % of control | dose: 100.0 mg/kg/injection, schedule: Q01DX005 (ip), vehicle: saline 100 % of control

CCC(=O)n1nc(Nc2ccccc2)c(C(=O)OC)c1C
inactive: dose: 6.25 mg/kg/injection, schedule: Q01DX005 (ip), vehicle: saline with Tween-80 99 % of control | dose: 12.5 mg/kg/injection, schedule: Q01DX005 (ip), vehicle: saline with Tween-80 94 % of control | dose: 25.0 mg/kg/injection, schedule: Q01DX005 (ip), vehicle: saline with Tween-80 94 % of control | [10] 86 % of control

c1ccc(CSc2nn[nH]n2)cc1
inactive: dose: 100.0 mg/kg/injection, schedule: Q04DX003 (ip), vehicle: Klucel (hydroxypropylcellulose) (HPC) 96 % of control | dose: 200.0 mg/kg/injection, schedule: Q04DX003 (ip), vehicle: Klucel (hydroxypropylcellulose) (HPC) 102 % of control | dose: 400.0 mg/kg/injection, schedule: Q04DX003 (ip), vehicle: Klucel (hydroxypropylcellulose) (HPC) 101 % of control

O=C1C=C(NCCC2CCCN3CCCCC23)C(=O)c2ccccc21 (centres undefined)
inactive: dose: 12.5 mg/kg/injection, schedule: Q01DX001 (ip), vehicle: Klucel (hydroxypropylcellulose) (HPC) 98 % of control | dose: 25.0 mg/kg/injection, schedule: Q01DX001 (ip), vehicle: Klucel (hydroxypropylcellulose) (HPC) 95 % of control | dose: 50.0 mg/kg/injection, schedule: Q01DX001 (ip), vehicle: Klucel (hydroxypropylcellulose) (HPC) 100 % of control

COc1ccc2c(c1)CCc1nc3n(c1-2)C(O)(c1ccccc1)C(CC(=O)O)S3 (centres undefined)
inactive: [1] 94 % of control | [2] 105 % of control | [9] 103 % of control

COc1nc(OC)c2cnn(-c3ccc(Cl)cc3)c2n1
inactive: dose: 30.0 mg/kg/injection, schedule: Q01DX005 (ip), vehicle: Klucel (hydroxypropylcellulose) (HPC) 89 % of control | [11] 89 % of control | [12] 92 % of control | [13] 89 % of control

O=S1(=O)c2ccccc2N(c2ccccc2)C2=NCCN21
inactive: dose: 60.0 mg/kg/injection, schedule: Q01DX005 (ip), vehicle: saline with Tween-80 91 % of control | dose: 120.0 mg/kg/injection, schedule: Q01DX005 (ip), vehicle: saline with Tween-80 99 % of control | dose: 240.0 mg/kg/injection, schedule: Q01DX005 (ip), vehicle: saline with Tween-80 97 % of control

CN(C)CCSc1cccc2c1C(=O)c1cccc(SCCN(C)C)c1C2=O
inactive: dose: 0.78 mg/kg/injection, schedule: Q01DX009 (ip), vehicle: saline 89 % of control | dose: 1.56 mg/kg/injection, schedule: Q01DX009 (ip), vehicle: saline 90 % of control | dose: 3.13 mg/kg/injection, schedule: Q01DX009 (ip), vehicle: saline 98 % of control | dose: 3.13 mg/kg/injection, schedule: Q01DX009 (ip), vehicle: water 105 % of control and 98 % of control | dose: 6.25 mg/kg/injection, schedule: Q01DX009 (ip), vehicle: saline 86 % of control | dose: 6.25 mg/kg/injection, schedule: Q01DX009 (ip), vehicle: water 99 % of control and 100 % of control | dose: 12.5 mg/kg/injection, schedule: Q01DX009 (ip), vehicle: saline 121 % of control | dose: 12.5 mg/kg/injection, schedule: Q01DX009 (ip), vehicle: water 101 % of control and 90 % of control | dose: 25.0 mg/kg/injection, schedule: Q01DX009 (ip), vehicle: water 100 % of control and 92 % of control | dose: 50.0 mg/kg/injection, schedule: Q01DX009 (ip), vehicle: water 90 % of control

CC(N1CCS(=O)(=O)CC1)P(=O)(O)O (centres undefined)
inactive: [14] 90 % of control | [15] 99 % of control | [10] 100 % of control

CC(=O)[O-].CC(=O)[O-].O=C(N/N=C/c1ccccc1[OH2+])c1ccncc1.[Zn+2]
inactive: [11] 100 % of control | [12] 100 % of control | [13] 99 % of control

CCCCN(CCCC)CCCOC(=O)c1ccc2oc3ccc(C(=O)OCCCN(CCCC)CCCC)cc3c2c1
inactive: dose: 50.0 mg/kg/injection, schedule: Q01DX009 (ip), vehicle: saline with Tween-80 96 % of control | dose: 100.0 mg/kg/injection, schedule: Q01DX009 (ip), vehicle: saline with Tween-80 103 % of control

O=C(NCC(=O)N1CCCC1)N/N=C/c1ccccc1O
inactive: [6] 102 % of control | [7] 102 % of control | [8] 98 % of control

Cc1[nH]oc(=O)c1C(=O)c1ccccc1
inactive: [14] 95 % of control | [15] 91 % of control | [10] 91 % of control

Cc1cc(=O)[nH]c2cc(O)ccc12
inactive: dose: 25.0 mg/kg/injection, schedule: Q01DX005 (ip), vehicle: Klucel (hydroxypropylcellulose) (HPC) 100 % of control | [6] 93 % of control | [7] 98 % of control
